Laboratory results from PubChem BioAssay (NCI).
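Protocol summary: plate cells (96-well), add compound at 5 concentrations, incubate 48 h, interpolate endpoints linearly. TGI marks complete inhibition of growth.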

Columns and labels:
Assay in all cases: NCI anticancer screen, dose series, 48 h
CAKI-1 renal = tested on: CAKI-1 renal
NCI-H460 lung = tested on: NCI-H460 lung
HCT-116 colon = tested on: HCT-116 colon
OVCAR-5 ovarian = tested on: OVCAR-5 ovarian
RPMI-8226 leukemia = tested on: RPMI-8226 leukemia
DU-145 prostate = tested on: DU-145 prostate
MCF7 breast = tested on: MCF7 breast
U251 CNS = tested on: U251 CNS
786-0 renal = tested on: 786-0 renal
EKVX NSCLC = tested on: EKVX NSCLC
UO-31 renal = tested on: UO-31 renal
KM12 colon = tested on: KM12 colon
HS 578T breast = tested on: HS 578T breast
M14 melanoma = tested on: M14 melanoma
RXF 393 renal = tested on: RXF 393 renal
SW-620 colon = tested on: SW-620 colon
A498 renal = tested on: A498 renal
UACC-62 melanoma = tested on: UACC-62 melanoma
HL-60(TB) leukemia = tested on: HL-60(TB) leukemia
SK-MEL-28 melanoma = tested on: SK-MEL-28 melanoma
OVCAR-4 ovarian = tested on: OVCAR-4 ovarian
MALME-3M melanoma = tested on: MALME-3M melanoma
NCI-H522 lung = tested on: NCI-H522 lung
MDA-MB-231 breast = tested on: MDA-MB-231 breast
SK-MEL-2 melanoma = tested on: SK-MEL-2 melanoma
T-47D breast = tested on: T-47D breast
HT29 colon = tested on: HT29 colon
SR leukemia = tested on: SR leukemia
COLO 205 colon = tested on: COLO 205 colon
NCI-H23 lung = tested on: NCI-H23 lung
TK-10 renal = tested on: TK-10 renal
SK-OV-3 ovarian = tested on: SK-OV-3 ovarian
UACC-257 melanoma = tested on: UACC-257 melanoma
SNB-19 CNS = tested on: SNB-19 CNS
HCT-15 colon = tested on: HCT-15 colon
OVCAR-3 ovarian = tested on: OVCAR-3 ovarian
NCI/ADR-RES ovarian = tested on: NCI/ADR-RES ovarian
SF-268 CNS = tested on: SF-268 CNS
PC-3 prostate = tested on: PC-3 prostate
HCC-2998 colon = tested on: HCC-2998 colon
HOP-92 NSCLC = tested on: HOP-92 NSCLC
LOX IMVI melanoma = tested on: LOX IMVI melanoma
K-562 leukemia = tested on: K-562 leukemia
SF-539 CNS = tested on: SF-539 CNS
BT-549 breast = tested on: BT-549 breast
MDA-N = tested on: MDA-N
MDA-MB-435 = tested on: MDA-MB-435
NCI-H226 lung = tested on: NCI-H226 lung
MOLT-4 leukemia = tested on: MOLT-4 leukemia
IGROV1 ovarian = tested on: IGROV1 ovarian
SNB-75 CNS = tested on: SNB-75 CNS
A549 NSCLC = tested on: A549 NSCLC
OVCAR-8 ovarian = tested on: OVCAR-8 ovarian
SK-MEL-5 melanoma = tested on: SK-MEL-5 melanoma
SN12C renal = tested on: SN12C renal
SF-295 CNS = tested on: SF-295 CNS
CCRF-CEM leukemia = tested on: CCRF-CEM leukemia
HOP-62 NSCLC = tested on: HOP-62 NSCLC
ACHN renal = tested on: ACHN renal

Measured: TGI

CSc1c(C#N)c(O)n(-c2ccc(C)cc2)c(=O)c1C#N
> 100 µM: CAKI-1 renal | NCI-H460 lung | HCT-116 colon | OVCAR-5 ovarian | RPMI-8226 leukemia | DU-145 prostate | MCF7 breast | U251 CNS | 786-0 renal | EKVX NSCLC | UO-31 renal | KM12 colon | HS 578T breast | M14 melanoma | RXF 393 renal | SW-620 colon | A498 renal | UACC-62 melanoma | HL-60(TB) leukemia | SK-MEL-28 melanoma | OVCAR-4 ovarian | MALME-3M melanoma | NCI-H522 lung | MDA-MB-231 breast | SK-MEL-2 melanoma | T-47D breast | HT29 colon | SR leukemia | COLO 205 colon | NCI-H23 lung | TK-10 renal | SK-OV-3 ovarian | UACC-257 melanoma | SNB-19 CNS | HCT-15 colon | OVCAR-3 ovarian | NCI/ADR-RES ovarian | SF-268 CNS | PC-3 prostate | HCC-2998 colon | HOP-92 NSCLC | LOX IMVI melanoma | K-562 leukemia | SF-539 CNS | BT-549 breast | MDA-N | MDA-MB-435 | NCI-H226 lung | MOLT-4 leukemia | IGROV1 ovarian | SNB-75 CNS | A549 NSCLC | OVCAR-8 ovarian | SK-MEL-5 melanoma | SN12C renal

CC(N=C(N)N)C(=O)O (stereo not given)
> 100 µM: CAKI-1 renal | HCT-116 colon | SF-295 CNS | OVCAR-5 ovarian | RPMI-8226 leukemia | DU-145 prostate | MCF7 breast | U251 CNS | 786-0 renal | EKVX NSCLC | UO-31 renal | KM12 colon | HS 578T breast | M14 melanoma | RXF 393 renal | SW-620 colon | A498 renal | UACC-62 melanoma | SK-MEL-28 melanoma | OVCAR-4 ovarian | MALME-3M melanoma | NCI-H522 lung | MDA-MB-231 breast | CCRF-CEM leukemia | SK-MEL-2 melanoma | T-47D breast | HT29 colon | SR leukemia | COLO 205 colon | NCI-H23 lung | TK-10 renal | SK-OV-3 ovarian | UACC-257 melanoma | SNB-19 CNS | HCT-15 colon | OVCAR-3 ovarian | NCI/ADR-RES ovarian | SF-268 CNS | PC-3 prostate | HCC-2998 colon | LOX IMVI melanoma | K-562 leukemia | BT-549 breast | MDA-N | MDA-MB-435 | NCI-H226 lung | HOP-62 NSCLC | MOLT-4 leukemia | IGROV1 ovarian | SNB-75 CNS | ACHN renal | A549 NSCLC | OVCAR-8 ovarian | SK-MEL-5 melanoma | SN12C renal
